Experimental data reported in patent US12642797B2, “Coated granule, solid dispersion, and preparation containing vortioxetine hydrobromide for oral taste masking” (Seasons Biotechnology (Taizhou) Co., Ltd., priority 2019, dated 2026).
Where a name gives a salt, the structure may show the parent alone.

Assays:
[1] = system: oral cavity and tongue; experiment: Taste and irritation test by subjects (self-made sample vs reference sample); format: in vivo, human; conditions: for Instantaneous irritation / Delayed irritation: hemihydrobromide
Method: In the examples, the taste masking effects of test samples were evaluated by the subject's perception of the bitterness and irritation of the oral cavity and tongue. The Taste and Irritation Classification Tested by the Subjects: [table]

[2] = Solubility in sodium acetate medium pH 6.8 simulating the oral environment (USP method); format: physicochemical; conditions: sodium acetate medium pH 6.8, USP method; hemihydrobromide

In the case of `Cc1ccc(Sc2ccccc2N2CCNCC2)c(C)c1` [vortioxetine hemihydrobromide], the Instantaneous irritation ([1]; Subject 4, 0-1 minute, powder equivalent to 20 mg of vortioxetine tasted, listed as Reference sample (1e)) is reported as “++ (+ + Irritating, tolerable)”, the Instantaneous irritation ([1]; Subject 4, 0-1 minute, powder equivalent to 20 mg of vortioxetine tasted, listed as Reference sample (2a)) is reported as “++ (+ + Irritating, tolerable)” and the Instantaneous irritation ([1]; Subject 4, 0-1 minute, powder equivalent to 20 mg of vortioxetine tasted, listed as Reference sample (2c)) is reported as “++ (+ + Irritating, tolerable)”. The Instantaneous irritation ([1]; Subject 4, 0-1 minute, powder equivalent to 20 mg of vortioxetine tasted, listed as Reference sample (3a)) was “+++ (+ + + Strong irritation, intolerable)”, the Instantaneous irritation ([1]; Subject 4, 0-1 minute, powder equivalent to 20 mg of vortioxetine tasted, listed as Reference sample (3b)) was “+++ (+ + + Strong irritation, intolerable)” and the Instantaneous irritation ([1]; Subject 4, 0-1 minute, powder equivalent to 20 mg of vortioxetine tasted, listed as Reference sample (3c)) was “+++ (+ + + Strong irritation, intolerable)”. For the same molecule, the Instantaneous irritation ([1]; Subject 4, 0-1 minute, powder equivalent to 20 mg of vortioxetine tasted, listed as Reference sample (4a)) was “+++ (+ + + Strong irritation, intolerable)”, the Instantaneous irritation ([1]; Subject 4, 0-1 minute, powder equivalent to 20 mg of vortioxetine tasted, listed as Reference sample (1d)) was “++ (+ + Irritating, tolerable)” and the Instantaneous irritation ([1]; Subject 4, 0-1 minute, powder equivalent to 20 mg of vortioxetine tasted, listed as Reference sample (2d)) was “++ (+ + Irritating, tolerable)”. The “Delayed irritation” value ([1]; Subject 4, powder equivalent to 20 mg of vortioxetine tasted, listed as Reference sample (1a)) was 15 to 30 min, the “Delayed irritation” value ([1]; Subject 4, powder equivalent to 20 mg of vortioxetine tasted, listed as Reference sample (1e)) was 15 to 30 min and the “Delayed irritation” value ([1]; Subject 4, powder equivalent to 20 mg of vortioxetine tasted, listed as Reference sample (2a)) was greater than 30 min. For the same molecule, the “Delayed irritation” value ([1]; Subject 4, powder equivalent to 20 mg of vortioxetine tasted, listed as Reference sample (2c)) was greater than 30 min, the “Delayed irritation” value ([1]; Subject 4, powder equivalent to 20 mg of vortioxetine tasted, listed as Reference sample (3a)) was 1 to 15 min and the “Delayed irritation” value ([1]; Subject 4, powder equivalent to 20 mg of vortioxetine tasted, listed as Reference sample (3b)) was 1 to 15 min. For the same molecule, the “Delayed irritation” value ([1]; Subject 4, powder equivalent to 20 mg of vortioxetine tasted, listed as Reference sample (3c)) was greater than 30 min, the “Delayed irritation” value ([1]; Subject 4, powder equivalent to 20 mg of vortioxetine tasted, listed as Reference sample (4a)) was greater than 30 min and the “Delayed irritation” value ([1]; Subject 4, powder equivalent to 20 mg of vortioxetine tasted, listed as Reference sample (5)) was greater than 30 min. The “Delayed irritation” value ([1]; Subject 4, powder equivalent to 20 mg of vortioxetine tasted, listed as Reference sample (6)) was 15 to 30 min, the “Delayed irritation” value ([1]; Subject 4, powder equivalent to 20 mg of vortioxetine tasted, listed as Reference sample (7a)) was greater than 30 min and the “Delayed irritation” value ([1]; Subject 4, powder equivalent to 20 mg of vortioxetine tasted, listed as Reference sample (8a)) was greater than 30 min. For the same molecule, the “Delayed irritation” value ([1]; Subject 4, powder equivalent to 20 mg of vortioxetine tasted, listed as Reference sample (8b)) was greater than 30 min, the “Delayed irritation” value ([1]; Subject 4, powder equivalent to 20 mg of vortioxetine tasted, listed as Reference sample (1d)) was 15 to 30 min and the “Delayed irritation” value ([1]; Subject 4, powder equivalent to 20 mg of vortioxetine tasted, listed as Reference sample (2d)) was greater than 30 min. For the same molecule, the Instantaneous irritation ([1]; Subject 5, 0-1 minute, powder equivalent to 20 mg of vortioxetine tasted, listed as Reference sample (1a)) was “+++ (+ + + Strong irritation, intolerable)”, the Instantaneous irritation ([1]; Subject 5, 0-1 minute, powder equivalent to 20 mg of vortioxetine tasted, listed as Reference sample (1e)) was “+++ (+ + + Strong irritation, intolerable)” and the Instantaneous irritation ([1]; Subject 5, 0-1 minute, powder equivalent to 20 mg of vortioxetine tasted, listed as Reference sample (2a)) was “+++ (+ + + Strong irritation, intolerable)”. For the same molecule, the Instantaneous irritation ([1]; Subject 5, 0-1 minute, powder equivalent to 20 mg of vortioxetine tasted, listed as Reference sample (2c)) was “+++ (+ + + Strong irritation, intolerable)”, the Instantaneous irritation ([1]; Subject 5, 0-1 minute, powder equivalent to 20 mg of vortioxetine tasted, listed as Reference sample (3a)) was “+++ (+ + + Strong irritation, intolerable)” and the Instantaneous irritation ([1]; Subject 5, 0-1 minute, powder equivalent to 20 mg of vortioxetine tasted, listed as Reference sample (3b)) was “+++ (+ + + Strong irritation, intolerable)”. For the same molecule, the Instantaneous irritation ([1]; Subject 5, 0-1 minute, powder equivalent to 20 mg of vortioxetine tasted, listed as Reference sample (3c)) was “++ (+ + Irritating, tolerable)”, the Instantaneous irritation ([1]; Subject 5, 0-1 minute, powder equivalent to 20 mg of vortioxetine tasted, listed as Reference sample (4a)) was “++ (+ + Irritating, tolerable)” and the Instantaneous irritation ([1]; Subject 5, 0-1 minute, powder equivalent to 20 mg of vortioxetine tasted, listed as Reference sample (1d)) was “+++ (+ + + Strong irritation, intolerable)”. The Instantaneous irritation ([1]; Subject 5, 0-1 minute, powder equivalent to 20 mg of vortioxetine tasted, listed as Reference sample (2d)) was “++ (+ + Irritating, tolerable)”, the “Delayed irritation” value ([1]; Subject 5, powder equivalent to 20 mg of vortioxetine tasted, listed as Reference sample (1a)) was greater than 30 min and the “Delayed irritation” value ([1]; Subject 5, powder equivalent to 20 mg of vortioxetine tasted, listed as Reference sample (1e)) was greater than 30 min. The “Delayed irritation” value ([1]; Subject 5, powder equivalent to 20 mg of vortioxetine tasted, listed as Reference sample (2a)) was 15 to 30 min, the “Delayed irritation” value ([1]; Subject 5, powder equivalent to 20 mg of vortioxetine tasted, listed as Reference sample (2c)) was 15 to 30 min and the “Delayed irritation” value ([1]; Subject 5, powder equivalent to 20 mg of vortioxetine tasted, listed as Reference sample (3a)) was 1 to 15 min. The “Delayed irritation” value ([1]; Subject 5, powder equivalent to 20 mg of vortioxetine tasted, listed as Reference sample (3b)) was 1 to 15 min, the “Delayed irritation” value ([1]; Subject 5, powder equivalent to 20 mg of vortioxetine tasted, listed as Reference sample (3c)) was greater than 30 min and the “Delayed irritation” value ([1]; Subject 5, powder equivalent to 20 mg of vortioxetine tasted, listed as Reference sample (4a)) was 15 to 30 min. For the same molecule, the “Delayed irritation” value ([1]; Subject 5, powder equivalent to 20 mg of vortioxetine tasted, listed as Reference sample (5)) was 15 to 30 min, the “Delayed irritation” value ([1]; Subject 5, powder equivalent to 20 mg of vortioxetine tasted, listed as Reference sample (6)) was greater than 30 min and the “Delayed irritation” value ([1]; Subject 5, powder equivalent to 20 mg of vortioxetine tasted, listed as Reference sample (7a)) was greater than 30 min. For the same molecule, the “Delayed irritation” value ([1]; Subject 5, powder equivalent to 20 mg of vortioxetine tasted, listed as Reference sample (8a)) was 15 to 30 min, the “Delayed irritation” value ([1]; Subject 5, powder equivalent to 20 mg of vortioxetine tasted, listed as Reference sample (8b)) was 15 to 30 min and the “Delayed irritation” value ([1]; Subject 5, powder equivalent to 20 mg of vortioxetine tasted, listed as Reference sample (1d)) was greater than 30 min. For the same molecule, the “Delayed irritation” value ([1]; Subject 5, powder equivalent to 20 mg of vortioxetine tasted, listed as Reference sample (2d)) was 15 to 30 min, the “Delayed irritation, time to disappear” value ([1]; average of 5 subjects, powder equivalent to 20 mg of vortioxetine) was “more than 30 minutes” and the Instantaneous irritation ([1]; average of 5 subjects, powder equivalent to 20 mg of vortioxetine, listed as Reference sample (1a)) was “+++ (+ + + Strong irritation, intolerable)”. The Instantaneous irritation ([1]; average of 5 subjects, powder equivalent to 20 mg of vortioxetine, listed as Reference sample (1e)) was “+++ (+ + + Strong irritation, intolerable)”, the Instantaneous irritation ([1]; average of 5 subjects, powder equivalent to 20 mg of vortioxetine, listed as Reference sample (2a)) was “+++ (+ + + Strong irritation, intolerable)” and the Instantaneous irritation ([1]; average of 5 subjects, powder equivalent to 20 mg of vortioxetine, listed as Reference sample (2c)) was “++ (+ + Irritating, tolerable)”. The Instantaneous irritation ([1]; average of 5 subjects, powder equivalent to 20 mg of vortioxetine, listed as Reference sample (3a)) was “++ (+ + Irritating, tolerable)”, the Instantaneous irritation ([1]; average of 5 subjects, powder equivalent to 20 mg of vortioxetine, listed as Reference sample (3b)) was “++ (+ + Irritating, tolerable)” and the Instantaneous irritation ([1]; average of 5 subjects, powder equivalent to 20 mg of vortioxetine, listed as Reference sample (3c)) was “++ (+ + Irritating, tolerable)”. For the same molecule, the Instantaneous irritation ([1]; average of 5 subjects, powder equivalent to 20 mg of vortioxetine, listed as Reference sample (4a)) was “+++ (+ + + Strong irritation, intolerable)”, the Instantaneous irritation ([1]; average of 5 subjects, powder equivalent to 20 mg of vortioxetine, listed as Reference sample (5)) was “++ (+ + Irritating, tolerable)” and the Instantaneous irritation ([1]; average of 5 subjects, powder equivalent to 20 mg of vortioxetine, listed as Reference sample (6)) was “++ (+ + Irritating, tolerable)”. For the same molecule, the Instantaneous irritation ([1]; average of 5 subjects, powder equivalent to 20 mg of vortioxetine, listed as Reference sample (7a)) was “+++ (+ + + Strong irritation, intolerable)”, the Instantaneous irritation ([1]; average of 5 subjects, powder equivalent to 20 mg of vortioxetine, listed as Reference sample (8a)) was “++ (+ + Irritating, tolerable)” and the Instantaneous irritation ([1]; average of 5 subjects, powder equivalent to 20 mg of vortioxetine, listed as Reference sample (8b)) was “++ (+ + Irritating, tolerable)”. The Instantaneous irritation ([1]; average of 5 subjects, powder equivalent to 20 mg of vortioxetine, listed as Reference sample (9a)) was “+++ (+ + + Strong irritation, intolerable)”, the Instantaneous irritation ([1]; average of 5 subjects, powder equivalent to 20 mg of vortioxetine, listed as Reference sample (9c)) was “+++ (+ + + Strong irritation, intolerable)” and the Instantaneous irritation ([1]; average of 5 subjects, powder equivalent to 20 mg of vortioxetine, listed as Reference sample (9e)) was “++ (+ + Irritating, tolerable)”. The Instantaneous irritation ([1]; average of 5 subjects, powder equivalent to 20 mg of vortioxetine, listed as Reference sample (11a)) was “++ (+ + Irritating, tolerable)”, the Instantaneous irritation ([1]; average of 5 subjects, powder equivalent to 20 mg of vortioxetine, listed as Reference sample (12a)) was “+++ (+ + + Strong irritation, intolerable)” and the Instantaneous irritation ([1]; average of 5 subjects, powder equivalent to 20 mg of vortioxetine, listed as Reference sample (12b)) was “+++ (+ + + Strong irritation, intolerable)”. For the same molecule, the Instantaneous irritation ([1]; average of 5 subjects, powder equivalent to 20 mg of vortioxetine, listed as Reference sample (13a)) was “++ (+ + Irritating, tolerable)”, the Instantaneous irritation ([1]; average of 5 subjects, powder equivalent to 20 mg of vortioxetine, listed as Reference sample (13b)) was “++ (+ + Irritating, tolerable)” and the Instantaneous irritation ([1]; average of 5 subjects, powder equivalent to 20 mg of vortioxetine, listed as Reference sample (14a)) was “++ (+ + Irritating, tolerable)”. For the same molecule, the Instantaneous irritation ([1]; average of 5 subjects, powder equivalent to 20 mg of vortioxetine, listed as Reference sample (16)) was “++ (+ + Irritating, tolerable)”, the Instantaneous irritation ([1]; average of 5 subjects, powder equivalent to 20 mg of vortioxetine, listed as Reference sample (17)) was “++ (+ + Irritating, tolerable)” and the Instantaneous irritation ([1]; average of 5 subjects, powder equivalent to 20 mg of vortioxetine, listed as Reference sample (1d)) was “+++ (+ + + Strong irritation, intolerable)”. The Instantaneous irritation ([1]; average of 5 subjects, powder equivalent to 20 mg of vortioxetine, listed as Reference sample (2d)) was “++ (+ + Irritating, tolerable)”, the Instantaneous irritation ([1]; average of 5 subjects, powder equivalent to 20 mg of vortioxetine, listed as Reference sample (9d)) was “++ (+ + Irritating, tolerable)” and the solubility [2] was 140 µg/mL.
